US11319318B2, “Pyridinones and isoquinolinones as inhibitors of the bromodomain BRD9” (Boehringer Ingelheim International GmbH, priority 2015, dated 2022)
pIC50: −log10 of the molar value.

Biological target: T1, bromodomain of BRD9 (GST fusion) / acetylated histone H4 peptide (BET Bromodomain Ligand) (Homo sapiens, UniProt Q9H8M2)
T1 construct: A GST fusion protein of the bromodomain of BRD9; purchased BPS Biosciences #32519
T1 sequence (Q9H8M2 136-240 limits assumed): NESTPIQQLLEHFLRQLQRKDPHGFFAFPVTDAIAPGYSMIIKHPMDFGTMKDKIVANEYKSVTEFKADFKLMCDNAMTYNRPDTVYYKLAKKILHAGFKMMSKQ
Test: BRD9-H4 Tetraacetylated Peptide Inhibition AlphaScreen
Format: binding
From the text: BRD9-H4 Tetraacetylated Peptide Inhibition AlphaScreen
This assay is used to identify compounds which inhibit the interaction of the bromodomain of BRD9 with a tetra-acetylated peptide based on the sequence of histone H4 (termed the “BET Bromodomain ligand” as purchased from BPS Biosciences).
A GST fusion protein of the bromodomain of BRD9 and an acetylated histone H4 peptide (the “BET Bromodomain Ligand” are purchased as part of the BRD9 Inhibitor Screening Assay Kit at BPS Biosciences (Cat. Number: #32519)
AlphaScreen Beads (Perkin Elmer):
AlphaLISA Glutathione Acceptor Beads
AlphaScreen Streptavidin Donor Beads
Assay plates: Proxiplate-384 PLUS, white (PerkinElmer)
The assay is done in a darkened room below 100 Lux.
Compounds are dispensed onto assay plates using an Access Labcyte Workstation with the Labcyte Echo 550 from a DMSO solution. For the chosen highest concentration of 100 μM, 150 nl of compound solution are transferred from a 10 mM DMSO solution. A series of 11 concentrations is transferred for each compound at which each concentration is five-fold lower than the previous one (i.e. 100 μM, 20 μM, 4 μM, 0.8 μM, etc). DMSO is added such that every well has a total of 150 nl of DMSO.
15 μl of the resulting mix are added to the assay plates that contain 150 nl of the compounds. After 60 min at room temperature the signal is measured in a PerkinElmer Envision HTS Multilabel Reader using the AlphaScreen specifications from PerkinElmer.
Each plate contains negative controls where biotinylated BET Bromodomain Ligand and GST-BRD9 are left out and replaced by assay buffer. Negative control values are entered as low basis value when using the software GraphPad Prism for calculations.

| Structure (SMILES) | pIC50 |
| --- | --- |
| CNc1cccc2c(=O)n(C)cc(-c3ccc(C)c(NS(C)(=O)=O)c3)c12 [II-39, N-[2-Methyl-5-(2-methyl-5-methylamino-1-oxo-1,2-dihydro-isoquinolin-4-yl)-phenyl]-methanesulfonamide] | 5.11 |
| CNc1ccc2c(-c3ccc(C)c(NS(C)(=O)=O)c3)cn(C)c(=O)c2c1 [II-40] | 5.26 |
| CCn1cc(-c2ccc(C)c(NS(C)(=O)=O)c2)c2cc[nH]c2c1=O [III-1, N-[5-(6-Ethyl-7-oxo-6,7-dihydro-1H-pyrrolo[2,3-c]pyridin-4-yl)-2-methyl-phenyl]-methanesulfonamide] | 6.19 |
